Literature values as cited in US12702690B2, “Cannabinoid compositions and dosage forms for intranasal or inhalational delivery” (RHODES TECHNOLOGIES, priority 2020, dated 2026).

Columns and labels:
[1] = background statement
[2] = following ingestion; Sharma et al. 2012

CCCCCc1cc(O)c2c(c1)OC(C)(C)C1CCC(C)=CC21 (single isomer, unassigned; (-)) [Dronabinol, (−)-trans-Δ^9-tetrahydrocannabinol]
solubility in water [1]: insoluble in water | time at which systemic absorption peaks [2]: 1 to 2 h
